From ChEMBL document CHEMBL1157561, “Identification of potent pyrazolo[4,3-h]quinazoline-3-carboxamides as multi-cyclin-dependent kinase inhibitors” (J Med Chem, 2010)
Values after ≈ are worked out from the molar mass of the structure shown.

Key:
[1] = Solubility at pH 7.0; assay type: physicochemical; settings: buffer
A2780 = assay: Antiproliferative activity against human A2780 cells after 72 hrs by cell-titer-glo assay; assay type: functional, cell-based; settings: A2780, 72 h
[2] = target: Cyclin-dependent kinase 2/cyclin A (Homo sapiens, UniProt P24941); assay: Inhibition of CDK2/Cyclin A; assay type: protein-complex assay
Aurora kinase A = target: T1, Aurora kinase A (Homo sapiens, UniProt O14965); assay: Inhibition of Aurora A
T1 sequence (O14965 whole entry): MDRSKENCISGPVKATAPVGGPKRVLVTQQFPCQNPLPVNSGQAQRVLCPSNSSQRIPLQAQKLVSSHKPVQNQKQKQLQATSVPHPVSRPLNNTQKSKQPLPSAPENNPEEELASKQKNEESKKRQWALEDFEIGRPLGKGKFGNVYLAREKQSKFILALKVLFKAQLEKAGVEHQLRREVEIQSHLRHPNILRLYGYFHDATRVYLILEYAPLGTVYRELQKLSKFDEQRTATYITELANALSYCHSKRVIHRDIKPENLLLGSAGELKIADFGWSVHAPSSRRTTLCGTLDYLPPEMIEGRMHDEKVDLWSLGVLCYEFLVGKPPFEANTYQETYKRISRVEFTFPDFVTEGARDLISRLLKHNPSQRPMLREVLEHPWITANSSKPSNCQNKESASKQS

| SMILES | solubility [1] [µM] | IC50 (A2780) [nM] | IC50 [2] [nM] | IC50 (Aurora kinase A) [nM] |
| --- | --- | --- | --- | --- |
| CNC(=O)c1nn(C)c2c1CCc1cnc(NC3CCCCC3)nc1-2 | 50 (≈ 17 µg/mL) | 8600 |  | > 10000 |
| Cn1nc(C(N)=O)c2c1-c1nc(NCc3cccnc3)ncc1CC2 | 138 (≈ 46.3 µg/mL) | 1390 | 21 | 2310 |
| Cn1nc(C(N)=O)c2c1-c1nc(NCCO)ncc1CC2 | > 225 | 2550 | 19 | 4600 |
| CC(CN(C)C)NC(=O)c1nn(C)c2c1CCc1cnc(NC3CCCC3)nc1-2 (configuration not stated) | 171 (≈ 68 µg/mL) | > 10000 | 1760 | > 10000 |
| CN(C)CCN(C)C(=O)c1nn(C)c2c1CCc1cnc(NC3CCCC3)nc1-2 | 189 (≈ 75.1 µg/mL) | 5170 | > 10000 | > 10000 |
| NC(=O)c1nn(-c2ccccn2)c2c1CCc1cnc(NC3CCCC3)nc1-2 | 4.9 (≈ 1.84 µg/mL) | 2160 | 52 | > 10000 |
| CNC(=O)c1nn(C)c2c1CCc1cnc(NC3CCN(C(=O)N4CCN(C)CC4)CC3)nc1-2 | > 10 | > 10000 | 1120 | > 10000 |
| CNC(=O)c1nn(C)c2c1CCc1cnc(NC3CCCC3)nc1-2 | 36 (≈ 11.8 µg/mL) | > 10000 | 97 | > 10000 |
| Cn1nc(C(N)=O)c2c1-c1nc(NCc3ccc(S(C)(=O)=O)cc3)ncc1CC2 | 138 (≈ 56.9 µg/mL) | 2360 | 38 | 890 |
| CN1CCN(c2ccc(CNc3ncc4c(n3)-c3c(c(C(N)=O)nn3C)CC4)cc2)CC1 | 28 (≈ 12.1 µg/mL) | 1580 | 17 | 1290 |
| CCN1CCC(Nc2ncc3c(n2)-c2c(c(C(N)=O)nn2C)CC3)CC1 | 221 (≈ 78.6 µg/mL) | 2460 | 149 | > 10000 |
| CNC(=O)c1nn(C)c2c1CCc1cnc(NC3CCN(C(C)=O)CC3)nc1-2 | > 225 | > 10000 | 32 | > 10000 |
| COc1cccc(CNc2ncc3c(n2)-c2c(c(C(N)=O)nn2C)CC3)c1 | 4.4 (≈ 1.6 µg/mL) | 1980 | 66 | 1140 |
| COc1ccc(CNc2ncc3c(n2)-c2c(c(C(N)=O)nn2C)CC3)cc1 | < 1 | 4140 | 58 | 1450 |
| CN(O)C(=O)c1nn(C)c2c1CCc1cnc(NC3CCCC3)nc1-2 | 29 (≈ 9.93 µg/mL) | 5530 | 175 | 3060 |
| CNC(=O)c1nn(C2CCN(C)CC2)c2c1CCc1cnc(NC3CCCC3)nc1-2 | 182 (≈ 74.5 µg/mL) | 1590 | 59 | > 10000 |
| CN1CCC(Nc2ncc3c(n2)-c2c(c(C(N)=O)nn2C)CC3)CC1 | > 225 | 2000 | 351 | > 10000 |
| Cn1nc(C(N)=O)c2c1-c1nc(N)ncc1CC2 | > 225 | 2200 | > 10000 | > 10000 |
| Cn1nc(C(N)=O)c2c1-c1nc(NCCN3CCOCC3)ncc1CC2 | 214 (≈ 76.5 µg/mL) | 8660 | 209 | > 10000 |
| Cn1nc(C(=O)N(O)Cc2ccccc2)c2c1-c1nc(NC3CCCC3)ncc1CC2 | < 1 | 6140 | 1370 | 4560 |
| Cn1nc(C(=O)N(O)C2CCCCC2)c2c1-c1nc(NC3CCCC3)ncc1CC2 | < 1 | 3970 | 296 | 3840 |
| CNC(=O)c1nn(C)c2c1CCc1cnc(NC3CCN(C)CC3)nc1-2 | 220 (≈ 78.2 µg/mL) | > 10000 | 4590 | > 10000 |
| Cn1nc(C(N)=O)c2c1-c1nc(NCc3ccccn3)ncc1CC2 | 123 (≈ 41.3 µg/mL) | 5120 | 87 | 4640 |
| Cn1nc(C(N)=O)c2c1-c1nc(NCCN3CCCCC3)ncc1CC2 | 182 (≈ 64.7 µg/mL) | 7600 | 2490 | > 10000 |

These reach a lower IC50 (A2780). Values come first.

| solubility [1] [µM] | IC50 (A2780) [nM] | IC50 [2] [nM] | IC50 (Aurora kinase A) [nM] | SMILES |
| --- | --- | --- | --- | --- |
| > 225 | 1300 | 12 | 4710 | CN1CCN(C(=O)N2CCC(Nc3ncc4c(n3)-c3c(c(C(N)=O)nn3C)CC4)CC2)CC1 |
| 222 (≈ 74.5 µg/mL) | 1240 | 21 | 1920 | Cn1nc(C(N)=O)c2c1-c1nc(NCc3ccncc3)ncc1CC2 |
| 108 (≈ 49 µg/mL) | 1000 | 5 | 442 | NC(=O)c1nn(-c2ccc(S(N)(=O)=O)cc2)c2c1CCc1cnc(NC3CCCC3)nc1-2 |
| > 10 | 933 | 51 | 1000 | Cn1nc(C(N)=O)c2c1-c1nc(NCc3ccccc3)ncc1CC2 |
| 210 (≈ 90.8 µg/mL) | 920 | 104 | 2140 | CN1CCN(c2cccc(CNc3ncc4c(n3)-c3c(c(C(N)=O)nn3C)CC4)c2)CC1 |
| > 10 | 903 | 13 | 672 | CC(=O)Nc1ccc(CNc2ncc3c(n2)-c2c(c(C(N)=O)nn2C)CC3)cc1 |
| < 1 | 840 | 23 | > 10000 | NC(=O)c1nn(Cc2ccccc2)c2c1CCc1cnc(NC3CCCC3)nc1-2 |
| 168 (≈ 74.8 µg/mL) | 822 | 25 | > 10000 | CNC(=O)c1nn(C)c2c1CCc1cnc(NC3CCN(C(=O)c4ccccc4)CC3)nc1-2 |
| < 1 | 567 | 81 | 1690 | Cn1nc(C(N)=O)c2c1-c1nc(NCc3ccc(Br)cc3)ncc1CC2 |
| < 1 | 557 | 6 | 2310 | COc1ccc(-n2nc(C(N)=O)c3c2-c2nc(NC4CCCC4)ncc2CC3)cc1 |
| 83 (≈ 32.8 µg/mL) | 506 | > 10000 | > 10000 | CN1CCN(C(=O)c2nn(C)c3c2CCc2cnc(NC4CCCC4)nc2-3)CC1 |
| < 1 | 480 | 20 | 4050 | NC(=O)c1nn(-c2ccccc2)c2c1CCc1cnc(NC3CCCC3)nc1-2 |
| < 1 | 410 | 4 | > 10000 | Cn1nc(C(N)=O)c2c1-c1nc(NC3CCCCC3)ncc1CC2 |
| < 1 | 370 | 5 | > 10000 | NC(=O)c1nn(CC(F)(F)F)c2c1CCc1cnc(NC3CCCC3)nc1-2 |
| 27 (≈ 9.24 µg/mL) | 330 | 8 | 6040 | NC(=O)c1nn(CCO)c2c1CCc1cnc(NC3CCCC3)nc1-2 |
| 13 (≈ 4.06 µg/mL) | 245 | 2 | > 10000 | Cn1nc(C(N)=O)c2c1-c1nc(NC3CCCC3)ncc1CC2 |
| 179 (≈ 75.8 µg/mL) | 70 | 7 | 1970 | CC(=O)N1CCC(n2nc(C(N)=O)c3c2-c2nc(NC4CCCC4)ncc2CC3)CC1 |
| 181 (≈ 71.6 µg/mL) | 46 | 6 | > 10000 | CN1CCC(n2nc(C(N)=O)c3c2-c2nc(NC4CCCC4)ncc2CC3)CC1 |
